Test results as given in patent publication EP4603497A1, “CRYSTAL FORM OF CYANO-SUBSTITUTED POLYPEPTIDE COMPOUND AND PREPARATION METHOD THEREFOR” (Fujian Akeylink Biotechnology Co., Ltd., priority 2022, dated 2024).

Key:
coronavirus HCoV OC43 = assay: in vitro anti-coronavirus activity, cytopathic model (CPE, CellTiter Glo); assay type: cell-based; settings: Betacoronavirus 1, 120 h; MRC5 cells, HCoV OC43 100TCID50/well, 5 days
Description: MRC5 cells and coronavirus HCoV OC43 were purchased from ATCC.
MRC5 cells were cultured in MEM (Sigma) culture medium supplemented with 10% fetal bovine serum (Excell), 1% dual antibody (Hyclone), 1% L-glutamine (Gibco), and 1% non-essential amino acids (Gibco). MEM (Sigma) culture medium supplemented with 5% fetal bovine serum (Excell), 1% dual antibody (Hyclone), 1% L-glutamine (Gibco), and 1% non-essential amino acids (Gibco) was used as the experimental culture medium.
Cells were seeded at a certain density (Table 12) into a 96-well plate and incubated overnight in a 5% CO2, 37°C incubator. The next day, the diluted compound (8 concentration points, double replicate wells) was added thereto, 50 µL per well. Then the diluted virus was added to each well at 100 TCID50, 50 µL per well. Cell controls (cells, no compound treatment or virus infection), virus controls (cells infected with virus, no compound treatment), and culture medium controls (only culture medium) were set up. […] Cell viability was detected using the CellTiter Glo (Promega) cell viability assay kit. […]
(§1) The inhibition rate and cell viability of the compound were analyzed using GraphPad Prism for non-linear fitting, and the half-maximal effective concentration (EC50) and half-maximal cytotoxic concentration (CC50) values of the compound were calculated. […]

SARS-CoV-2 Mpro = molecular target: T1, SARS-CoV-2 Mpro (Severe acute respiratory syndrome coronavirus 2, UniProt P0DTD1); assay: in vitro anti-SARS-CoV-2 Mpro protease activity (fluorescent substrate assay); assay type: biochemical; settings: 25 nM Mpro protein, 25 µM substrate
T1 construct: SARS-CoV-2 Mpro; purchased WuXi AppTec
Description: The compound was dissolved in DMSO, diluted in a 3-fold gradient using Echo655 according to the required test concentration, with 10 concentration points. Each concentration was duplicated and added to a 384-well plate. The Mpro protein and substrate were diluted with a test buffer (100 mM NaCl, 20 mM Tris-HCl, 1 mM EDTA), and the Mpro protein was added to the 384-well test plate, incubated with the compound at room temperature for 30 min, then the substrate was added. The test concentration of the Mpro protein was 25 nM and the test concentration of the substrate was 25 µM. The mixture was incubated in a constant temperature incubator at 30°C for 60 minutes. Then, the fluorescence signal value at Ex/Em = 340 nm/490 nm was detected using a microplate reader. At the same time, the background well containing substrate and compound but not containing Mpro protein was detected as a control. […]

[1] = cytotoxicity experiment (same conditions, without virus infection); assay type: cell-based; settings: human; MRC5 cells, 5 days, no virus
Description: Cells were seeded at a certain density (Table 12) into a 96-well plate and incubated overnight in a 5% CO2, 37°C incubator. The next day, the diluted compound (8 concentration points, double replicate wells) was added thereto, 50 µL per well. Then the diluted virus was added to each well at 100 TCID50, 50 µL per well. Cell controls (cells, no compound treatment or virus infection), virus controls (cells infected with virus, no compound treatment), and culture medium controls (only culture medium) were set up. The final volume of the experimental culture medium was 200 µL, with a final DMSO concentration of 0.5% in the culture medium. The cells were incubated for 5 days in a 5% CO2, 33°C incubator. Cell viability was detected using the CellTiter Glo (Promega) cell viability assay kit. The conditions for the cytotoxicity experiment were the same as for the antiviral experiment, but without virus infection.
The antiviral activity and cytotoxicity of the compound were represented by the inhibition rate (%) and the cell viability (%) of the cytopathic effect caused by the virus at different concentrations of the compound, respectively. […]
as §1

coronavirus OC43 strain = assay: in vivo antiviral efficacy, suckling mouse infection model; settings: once a day for 7 consecutive days, first dose 2 hours before inoculation
From the text: Experimental example 4: Evaluation of the in vivo antiviral efficacy of the test compound using a suckling mouse infection model with the coronavirus OC43 strain

[2] = hygroscopicity by dynamic vapor sorption (DVS); assay type: physicochemical
Description: • Instrument model: SMS DVS Advantage dynamic vapor sorption analyzer • Test conditions: A sample (10 to 30 mg) is taken and placed in a DVS sample tray for testing. • The detailed parameters for DVS are as follows: • Temperature: 25°C • Equilibrium: dm/dt = 0.002%/min (minimum: 10 minutes, maximum: 180 minutes) • RH (%) range: 70%RH-95%RH-0%RH-95%RH • RH (%) gradient: 10% (90%RH-0%RH-90%RH), 5% (95%RH-90%RH and 90%RH-95%RH).

[3] = stability of the crystal form under different conditions (XRPD confirmation); assay type: physicochemical
From the text: Table 6: Stability test under different conditions

in vivo = assay: in vivo; set-up: species or system SD rats; settings: rat; for AUC(0-t): AUC0-last; for half-life: T1/2
Description: In this study, male and female SD rats were selected as test animals.
Animals were grouped according to 3 per group/gender. […] The plasma drug concentration was determined using LC-MS/MS method. Table 14: Pharmacokinetic parameters in rats

## CC(C)(C)[C@H](NC(=O)C(F)(F)F)C(=O)N1[C@H]2C[C@@H]([C@H]1C(=O)N[C@H](C#N)C[C@@H]1CCNC1=O)C1(CC1)C2 [Compound 1]
Coronavirus HCoV OC43
  EC50: 5.1 nM
  EC90: 7.9 nM
SARS-CoV-2 Mpro
  IC50: 1.8 nM
[1]
  CC50 at 120 h: > 10000 nM
Coronavirus OC43 strain; 12.5 mg/kg
  Median survival time: > 14 days
  Survival rate: 87.5%
Coronavirus OC43 strain; 25 mg/kg
  Median survival time: > 14 days
  Survival rate: 100%
Coronavirus OC43 strain; 50 mg/kg
  Median survival time: > 14 days
  Survival rate: 100%

## CC(C)(C)[C@H](NC(=O)C(F)(F)F)C(=O)N1[C@H]2C[C@@H]([C@H]1C(=O)N[C@H](C#N)C[C@@H]1CCNC1=O)C1(CC1)C2 [Crystal form A]
[2]; 25°C and 80% RH
  hygroscopic weight gain: 0.114%
  hygroscopicity: no or almost no hygroscopicity
[2]; DVS pattern, Figure 16
  ΔW: 0.114%
[3]; High humidity condition (25°C/92.5%RH), 30 days
  Confirmation of crystal form by XRPD after completion of the experiment: Crystal form A
[3]; High temperature (60°C), 30 days
  Confirmation of crystal form by XRPD after completion of the experiment: Crystal form A
[3]; Illumination (5000 ± 500 lux (visible light) and 90 µw/cm^2 (ultraviolet)), 10 days
  Confirmation of crystal form by XRPD after completion of the experiment: Crystal form A
In vivo; iv, 2 mg/kg
  AUC0-last: 778 ng·h/mL
  AUC(0-inf): 785 ng·h/mL
  Cl: 42.5 mL/min/kg
  T1/2: 18.2 min
  Vdss: 1.04 L/kg
  AUC(0-t): 792 ng·h/mL
  half-life: 19.8 min
In vivo; iv, 2 mg/kg, AUC0-inf
  AUC(0-inf): 804 ng·h/mL
In vivo; iv, 2 mg/kg, Cl
  clearance: 42.4 mL/min/kg
In vivo; iv, 2 mg/kg, Vdss
  Vd: 1.11 L/kg
In vivo; po, 30 mg/kg
  AUC0-last: 9910 ng·h/mL
  Tmax: 30 min
  AUC(0-t): 5960 ng·h/mL
  half-life: 49.6 min
In vivo; po, 30 mg/kg, AUC0-inf
  AUC(0-inf): 5980 ng·h/mL
In vivo; po, 30 mg/kg, Tmax
  Tmax: 55 min
